Data taken from patent US20250035641A1, “COMPOSITIONS AND METHODS RELATED TO PROTEIN LABELING” (The Chinese University of Hong Kong, priority 2023, published 2025).
Blank lines part the entries; values can stand above or below the compound they belong to.

Columns and labels:
FKBP12^F36V = FKBP12^F36V (Homo sapiens, UniProt P62942, F37V); conditions: cited from earlier work
HTN-CK2α [1] = target: T1, HTN-CK2α (Homo sapiens, UniProt P68400); experiment: Immunoblot of HTN-CK2α O-GlcNAcylation in HEK293T cells co-expressing fOGT; assay type: cell-based; conditions: co-treated with OGTAC-1
Text: Ck2α is a well-studied OGT substrate.^17,25 Its Ser347 is conservatively O-GlcNAcylated and this modification was reported to affect its kinase activity.^16,17 We first co-expressed HTN-Ck2α and fOGT in HEK293T cells at different ratio and found the basal O-GlcNAcylation level of HTN-Ck2α was higher than what we detected in the case of HTN-BRD4. Therefore, a lower ratio of fOGT expression (1:100) was selected for the assessment of OGTAC potency (FIG. 9). […] The induction of specific O-GlcNAcylation on HTN-Ck2α was further confirmed by mass-shift assay. […] To validate the direct binding to both fOGT and HTN-Ck2α is critical, we exploited AP 1867 and rhodamine ligand, which bind to fOGT and HTN-Ck2α respectively, to co-treat with OGTAC-1.
During immunoblotting study, we noticed that even for whole cell lysate (WCL), RL2 antibody band (green) and HTN-CK2α protein band (red) are perfectly overlapped and clearly distinguishable from other bands on blot (FIG. 6B). We assessed the OGTAC treatment effects by quantifying the RL2 signal that is overlapping with HTN-Ck2α in WCL, and found they are corresponding with the results achieved by IP-WB method (FIG. 6C). Therefore, we quantify the intensity of RL2 band that overlapping with HTN-CK2α level instead of IP CK2α in later study.
For each IP reaction, 2.2×10^6 HEK293T cells were seed in 10 cm dish. After cells attached, transfection reagents and plasmids were prepared and added in DMEM. After 24 h transfection, media were replaced by fresh warm complete media with DMSO or probes. For washout study, after 4 h treatment, media with DMSO or OGTAC-4 (500 nM) were replaced by fresh media with DMSO or AP1867 (50 μM) for further incubation. After certain time of OGTACs treatment, cells were collected by cold PBS and lysed by 200 μL complete IP lysis buffer. The lysate was incubated on ice for 20 min, spun down at 14,000 RPM at 4° C. for 15 mins, and the supernatant were collected for bicinchoninic acid (BCA) assay and normalized to a final 2 mg/mL. For input, 20 μL of diluted sample was reacted with equal volume of 10 μM TMR ligand in IP lysis buffer and rotate gently at RT for 15 mins. The remaining samples were subjected to protein A/G magnetic beads (MedChemExpress, HY-K0202), which pre-binding with protein target protein antibody. For samples for LC-MS/MS or HTN-BRD4 mutant constructs. Halo-Trap Magnetic Agarose (Proteintech, otma) was used to incubate with protein lysates. After gentle rotation at 4° C. for at least 16 h, the beads were washed with IP lysis buffer and boiled in 40 μL 2×SDS-loading buffer (Biorad #1610747) for 5 mins to elute proteins from beads. Eluted samples were directly subjected into WB analysis. To get stronger signal of RL2, we used anti-mouse-HRP (Cell signaling, #7076) as secondary antibody for RL2 and anti-rabbit-DyLight 488 (Invitrogen, #35552) as secondary antibody for total target proteins.
In general, cells (from 12 well plate) were lysed by 80 μl RIPA lysis buffer (Thermo Scientic 89901) supplemented with 20 μM OGA inhibitor (Thaimet G, Bidepharm BD571819) and 100X protease inhibitor (MedChemExpress, HY-K0010), incubated on ice for 20 min, spun down at 14,000 RPM at 4° C. for 15 mins, and the supernatant were collected for bicinchoninic acid (BCA) assay and normalizedeto a final 2 mg/mL concentration. About 30 μg of protein samples were loaded for sodium dodecyl sulfatepolyacrylamide gel electrophoresis (SDS-PADE) and blotted with indicated antibodies.
Target sequence in this assay (P68400 with tags, fused parts or gaps): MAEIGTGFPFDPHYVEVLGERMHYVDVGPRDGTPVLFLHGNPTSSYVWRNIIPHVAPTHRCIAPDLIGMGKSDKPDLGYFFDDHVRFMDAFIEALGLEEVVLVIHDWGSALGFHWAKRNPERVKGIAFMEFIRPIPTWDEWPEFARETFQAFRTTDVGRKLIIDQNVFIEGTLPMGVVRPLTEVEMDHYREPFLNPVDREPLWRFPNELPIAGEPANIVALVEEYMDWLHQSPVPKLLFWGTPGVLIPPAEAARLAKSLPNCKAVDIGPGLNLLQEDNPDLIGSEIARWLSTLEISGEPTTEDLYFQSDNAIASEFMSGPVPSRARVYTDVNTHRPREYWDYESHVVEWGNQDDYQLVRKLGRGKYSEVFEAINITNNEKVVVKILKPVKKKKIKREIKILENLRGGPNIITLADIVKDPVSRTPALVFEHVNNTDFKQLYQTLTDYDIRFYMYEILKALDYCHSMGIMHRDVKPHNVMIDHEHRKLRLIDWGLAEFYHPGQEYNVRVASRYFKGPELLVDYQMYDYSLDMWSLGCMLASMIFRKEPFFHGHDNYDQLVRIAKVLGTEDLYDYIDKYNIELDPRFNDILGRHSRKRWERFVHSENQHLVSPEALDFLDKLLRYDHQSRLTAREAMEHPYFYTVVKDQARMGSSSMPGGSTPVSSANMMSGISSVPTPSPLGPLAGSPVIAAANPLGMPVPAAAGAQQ
Target sequence in this assay (P62942+O15294 fused P62942:F37V partner): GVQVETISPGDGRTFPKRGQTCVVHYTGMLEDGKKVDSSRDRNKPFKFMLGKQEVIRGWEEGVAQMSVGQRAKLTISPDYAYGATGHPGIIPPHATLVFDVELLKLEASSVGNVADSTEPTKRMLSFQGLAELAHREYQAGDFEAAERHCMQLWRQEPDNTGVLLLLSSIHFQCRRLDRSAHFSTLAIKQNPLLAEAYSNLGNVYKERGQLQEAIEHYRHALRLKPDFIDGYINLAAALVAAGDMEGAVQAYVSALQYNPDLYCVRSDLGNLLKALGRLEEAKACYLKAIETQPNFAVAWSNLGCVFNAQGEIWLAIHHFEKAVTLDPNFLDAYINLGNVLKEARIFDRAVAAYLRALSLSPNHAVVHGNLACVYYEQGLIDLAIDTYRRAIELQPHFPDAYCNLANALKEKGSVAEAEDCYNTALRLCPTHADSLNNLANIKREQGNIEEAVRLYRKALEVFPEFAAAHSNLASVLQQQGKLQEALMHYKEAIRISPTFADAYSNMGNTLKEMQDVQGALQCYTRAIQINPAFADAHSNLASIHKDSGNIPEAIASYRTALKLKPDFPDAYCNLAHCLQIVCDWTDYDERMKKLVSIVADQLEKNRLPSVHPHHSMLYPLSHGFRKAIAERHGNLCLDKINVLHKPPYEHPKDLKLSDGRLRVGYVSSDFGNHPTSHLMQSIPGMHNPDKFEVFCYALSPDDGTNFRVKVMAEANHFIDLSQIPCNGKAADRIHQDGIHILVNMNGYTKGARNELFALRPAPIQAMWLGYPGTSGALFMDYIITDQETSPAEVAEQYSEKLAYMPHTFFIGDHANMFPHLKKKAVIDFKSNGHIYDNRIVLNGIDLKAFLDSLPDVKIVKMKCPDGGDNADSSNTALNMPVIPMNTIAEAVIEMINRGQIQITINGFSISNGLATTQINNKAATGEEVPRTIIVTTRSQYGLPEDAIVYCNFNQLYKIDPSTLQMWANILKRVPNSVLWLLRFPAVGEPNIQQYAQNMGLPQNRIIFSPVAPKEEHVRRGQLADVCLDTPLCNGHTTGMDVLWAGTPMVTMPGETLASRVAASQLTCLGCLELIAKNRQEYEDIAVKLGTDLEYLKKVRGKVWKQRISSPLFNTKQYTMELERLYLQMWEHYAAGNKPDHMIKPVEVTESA

HTN-BRD4 and 0tfOGT = target: T2, HTN-BRD4 and 0tfOGT (Homo sapiens, UniProt O60885+P62942, F37V); experiment: Washout / reversibility study, HTN-BRD4:0tfOGT; assay type: cell-based; conditions: AP1867 50 μM after OGTAC-4 500 nM 4 h
T2 construct: HaloTag fragment; 0TPR(463-1046)-; expressed in transfected cells; host or cells: HEK293T
Protocol: FIGS. 7A-7E: Specificity and reversibility of OGTAC strategy. […] (B), Constructs of fOGT with 13.5 (rounded to 13) TPR and 0TPR-fOGT (0tfOGT). (C). […] (D), Dose-dependent O-GlcNAcylation profile of HTN-BRD4 by OGTAC-4 treatment. HEK293T cells expressing HTN-BRD4:0tfOGT=1:0.05 were treated with an increasing concentration of OGTAC-4 for 4 h. Then, the O-GlcNAcylation level of HTN-BRD4 was assessed by immunoblot after IP using BRD4 antibody. All quantifications are shown as mean±s.e.m. of n=3 biologically independent experiments. (E), Reversible effect of OGTAC-4 on HTN-BRD4 can be achieved by addition of AP1867. HEK293T cells expressing HTN-BRD4:0tfOGT=1:0.05 were pretreated with OGTAC-4 (500 nM) or DMSO for 4 h, and culturing media were replaced by fresh media with DMSO or AP1867 (50 μM) for the indicated time. The quantifications in right panel were conducted by the normalizing the fold-change (OGTAC-4/DMSO) for each post-washout time point to the value of 4 h pre-treatment. All quantifications are shown as mean±s.e.m. of 3 independent biological repeats. Statistical significance was calculated with ordinary one-way ANOVA comparing samples with different transfection conditions or OGTAC-treatment. ns, p≥0.05; *p<0.05; **p<0.01; ***p<0.001; ****p<0.0001.
To assess the potential application of our OGTAC strategy in downstream biological studies, we investigated the reversibility of OGTACs. […] Additionally. the O-GlcNAc level of BRD4 returned to baseline after 6 hours of AP1867 treatment, confirming the reversibility of the induction effect (FIG. 7E).
For each IP reaction, 2.2×10^6 HEK293T cells were seed in 10 cm dish. After cells attached, transfection reagents and plasmids were prepared and added in DMEM. After 24 h transfection, media were replaced by fresh warm complete media with DMSO or probes. For washout study, after 4 h treatment, media with DMSO or OGTAC-4 (500 nM) were replaced by fresh media with DMSO or AP1867 (50 μM) for further incubation. After certain time of OGTACs treatment, cells were collected by cold PBS and lysed by 200 μL complete IP lysis buffer. […]

HTN-CK2α [2] = target: T1, HTN-CK2α; experiment: O-GlcNAcylation of HTN-CK2α with 0tfOGT; assay type: cell-based; parameters: 0TPR(463-1046)-; expressed in transfected cells
Protocol: FIGS. 18A and 18B: Immunoblotting analysis of the global O-GlcNAcylation inducing effect of truncated OGTAC-4 and OGTAC-1 on HTN-BRD4 and HTN-CK2α respectively. (A), O-GlcNAcylation inducing effect of OGTAC-4 is dependent on the expression of 0tfOGT. […] The quantification was conducted by immunoblot signal of probe treatment/control as the mean±s.e.m. of n=2 biologically independent experiments. TR, transfection reagent.
Target sequence in this assay (P68400 with tags, fused parts or gaps): as the sequence (P68400 with tags, fused parts or gaps) above
Target sequence in this assay (P62942+O15294 fused P62942:F37V partner): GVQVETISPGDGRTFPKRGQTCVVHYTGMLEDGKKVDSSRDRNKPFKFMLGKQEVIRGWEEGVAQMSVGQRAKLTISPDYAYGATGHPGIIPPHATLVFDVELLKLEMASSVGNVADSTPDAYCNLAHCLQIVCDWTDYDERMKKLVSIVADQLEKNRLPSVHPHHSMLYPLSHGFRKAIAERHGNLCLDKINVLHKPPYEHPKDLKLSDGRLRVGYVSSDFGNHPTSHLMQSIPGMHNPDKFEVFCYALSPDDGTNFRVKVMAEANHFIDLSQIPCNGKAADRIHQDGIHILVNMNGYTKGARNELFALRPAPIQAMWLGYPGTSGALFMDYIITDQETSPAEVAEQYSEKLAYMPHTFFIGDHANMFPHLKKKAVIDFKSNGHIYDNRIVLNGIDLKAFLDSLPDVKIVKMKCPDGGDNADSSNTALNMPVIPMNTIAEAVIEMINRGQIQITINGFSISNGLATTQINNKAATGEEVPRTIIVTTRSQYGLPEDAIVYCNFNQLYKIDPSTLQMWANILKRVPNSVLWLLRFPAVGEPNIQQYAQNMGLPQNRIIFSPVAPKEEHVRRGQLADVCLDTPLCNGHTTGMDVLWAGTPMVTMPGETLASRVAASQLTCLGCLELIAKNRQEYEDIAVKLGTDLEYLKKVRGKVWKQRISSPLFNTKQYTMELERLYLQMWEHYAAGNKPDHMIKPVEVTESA

[3] = test system: HTN-BRD4 covalently linked to OGTAC-1

T2 sequence (P62942 whole entry F37V, stated change not applied, other chains not shown, the tested form may be a part): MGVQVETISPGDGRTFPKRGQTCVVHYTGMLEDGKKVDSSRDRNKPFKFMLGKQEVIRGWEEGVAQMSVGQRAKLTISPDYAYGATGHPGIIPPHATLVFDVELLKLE
Chain of FKBP12^F36V (P62942 whole entry F37V): as the sequence (P62942 whole entry F37V, stated change not applied, other chains not shown, the tested form may be a part) above

time for O-GlcNAc level of BRD4 to return to baseline (HTN-BRD4 and 0tfOGT): 6 h | time to marked decrease in ternary complex formation (HTN-BRD4 and 0tfOGT): ≤ 2 h
Compound: CC[C@H](C(=O)N1CCCC[C@H]1C(=O)O[C@H](CCc1ccc(OC)c(OC)c1)c1cccc(OCC(=O)O)c1)c1cc(OC)c(OC)c(OC)c1 [AP1867, 2-[3-[(1R)-3-(3,4-dimethoxyphenyl)-1-[(2S)-1-[(2S)-2-(3,4,5-trimethoxyphenyl)butanoyl]piperidine-2-carbonyl]oxy-propyl]phenoxy]acetic acid]
Kd (FKBP12^F36V): 1.8 nM | effect of competitor co-treatment on OGTAC-1 induced HTN-CK2α O-GlcNAcylation (HTN-CK2α [1]): abolished the O-GlcNAcylation inducing effects

recruitment of 0tfOGT to HTN-CK2α (HTN-CK2α [2]): unable to recruit 0tfOGT to HTN-CK2α
Compound: CCCCCCOCCOCCNC(=O)COc1cccc([C@@H](CCc2ccc(OC)c(OC)c2)OC(=O)[C@@H]2CCCCN2C(=O)[C@@H](CC)c2cc(OC)c(OC)c(OC)c2)c1 [OGTAC-1H, (R)-3-(3,4-dimethoxyphenyl)-1-(3-(2-((2-(2-(hexyloxy)ethoxy)ethyl)amino)-2-oxoethoxy)phenyl)propyl(S)-1-((S)-2-(3,4,5-trimethoxyphenyl)butanoyl)piperidine-2-carboxylate]

Compound: CN(C)c1ccc2c(-c3cc(C(=O)NCCOCCOCCCCCCCl)ccc3C(=O)[O-])c3ccc(=[N+](C)C)cc-3oc2c1 [rhodamine ligand, 4-((2-(2-((6-chlorohexyl)oxy)ethoxy)ethyl)carbamoyl)-2-(6-(dimethylamino)-3-(dimethyliminio)-3H-xanthen-9-yl)benzoate, reference compound]
effect of competitor co-treatment on OGTAC-1 induced HTN-CK2α O-GlcNAcylation (HTN-CK2α [1]): abolished the O-GlcNAcylation inducing effects

Compound: FKBP12^F36V fused-OGT
RL2 signal of BRD4 (O-GlcNAcylation of HTN-BRD4, IP-immunoblot) after 2 h of OGTAC-1 640 nM [3]: 2.5-fold increase at 2 h | RL2 signal of BRD4 (O-GlcNAcylation of HTN-BRD4, IP-immunoblot) after 4 h of OGTAC-1 640 nM [3]: further escalated to around 2.8-fold at 4 h
